Assays:
Format in all cases: in vivo, mouse
[1] = system: splenocytes (CD4+ T cells, CD8+ T cells, CD19+ B cells); assay: FACS analysis of splenocytes harvested from treated MOG35-55-immunized mice; conditions: eleven days oral dosing; for BTLA expression on CD4+ T cells: vehicle 2.87%; for PD1 expression on CD4+ T cells: vehicle 3.5%; for PD-L1 expression on CD4+ T cells: vehicle 8.32%; for BTLA expression on CD19+ B cells: vehicle 12.21%; for BTLA expression on CD8+ T cells: vehicle (WT) 0.78%; for PD1 expression on CD8+ T cells: vehicle (WT) 1.12%; for PD-L1 expression on CD8+ T cells: vehicle (WT) 5.63%; for CD3+CD8+ T cells: vehicle (WT) 6.75%; for CD3+CD4+ T cells: vehicle (WT) 8.34%; for PD1 expression on CD19+ B cells: vehicle (WT) 11.58%; for PD-L1 expression on CD19+ B cells: vehicle (WT) 12.21%; for CD19+B220+ B cells: vehicle (WT) 42.82%; for VLA-4 (CD29+CD49d+) expression on T cells: vehicle (WT) 44.12%; for VLA-4 (CD29+CD49d+) expression on B cells: vehicle (WT) 56.35%
Text: Flow cytometry Cells were stained according to standard protocols, run on a FACScan flow cytometer (BD Biosciences), and analysed with CellQuest software (BD Immunocytometry Systems). The antibody conjugates used were PerCPCy5.5 anti-CD3, FITC anti-CD4, PE anti-CD8, PE anti-B220, PerCp-Cy5.5 anti-B220, FITC anti-CD19, PE anti-PD1, PE anti-PD-L1, PE anti-BTLA, PE anti-CD29, and FITC anti-CD49d (BD Pharmingen & eBioscience)

[2] = system: experimental autoimmune encephalomyelitis (EAE); assay: Adoptive transfer EAE with cells of treated donor mice; conditions: donor mice treated eleven days, cells restimulated 72 h with MOG35-55 and rIL-12; vs vehicle treated donors (FIG. 4D)
Experimental: Mice and EAE Induction. C57BL/6J and FXRKO (B6.129x1(FVB)-Nr1h4tm1Gonz/J, #0007214) female mice were purchased from the Jackson Laboratory. Animal experiments were approved by, and performed in compliance with, the National Institute of Health guidelines of the Institutional Animal Care and Use Committee at Stanford University. For induction of active and adoptive transfer of EAE, 8- to 12-week-old female mice were immunized subcutaneously with 100 μg of MOG35-55 emulsified in complete Freund's adjuvant (CFA), consisting of incomplete Freund's Adjuvant and 0.4 mg of heat inactivated Mycobacterium tuberculosis, strain H37 RA (Difco Laboratories). On days 0 and 2, mice were also injected intravenously or intraperitoneally with 400 ng pertussis toxin in 0.2 ml 1×PBS. Adoptive transfer requires harvesting lymph nodes and spleens ten days after immunization. Combined lymphocytes and splenocytes are cultured in bulk, at 5×10^7 cells/ml for seventy-two hours in the presence of MOG35-55 (20 μg/ml) and rIL-12 (10 ng/ml, R&D systems). Cells are harvested and washed twice before transfer of 3×10^7 cells in 0.2 ml 1×PBS into naive 6-7 week old female mice, intraperitoneally. Clinical disease was monitored daily using the following scoring system: 0, no disease; 1, limp tail; 2, hind limb weakness; 3, hind limb paralysis; 4, hind limb and forelimb paralysis; 5, death.

[3] = system: MOG35-55-specific lymphocytes; assay: 72 h proliferation assay (3H-thymidine) of splenocytes/lymph node cells harvested from treated mice, restimulated with MOG35-55
Experimental: (§1) Proliferation and cytokine assays. Splenocytes and lymph nodes were harvested and stimulated with increasing concentrations of MOG35-55 for a total of 72 hours. For assessment of proliferation, 1 μCi of ^3H-thymidine was added to each well for the final 18-24 hours of culture, and incorporation of radioactivity was measured by using a Betaplate scintillation counter. Cytokine assays were performed on culture supernatants after 72 hours of culture by using the IL-2, IL-6, IFNgamma, and TNF BD OptEIA™ Mouse ELISA kits (BD Biosciences) or Mouse IL-17 DuoSet ELISA Development kit (R&D Systems).

[4] = system: splenocytes; assay: Cytokine production (ELISA) by splenocytes harvested from treated mice, restimulated with MOG35-55; conditions: daily oral treatment of established EAE (FIG. 3D)
Experimental: as §1

[5] = system: experimental autoimmune encephalomyelitis (EAE); assay: Active EAE, clinical scores of mice with established EAE; conditions: 5 mg/kg daily oral, 6-ECDCA vs CDCA vs vehicle (FIG. 3B)
[6] = Serum lipid panel analysis of treated MOG35-55-immunized mice fasted overnight; conditions: eleven days of oral dosing after EAE immunization, overnight fast (FIG. 4A)
Text: Serum Lipid Panel Analysis. Serum from mice fasted overnight was submitted to the Diagnostic Laboratory at Stanford University, Department of Comparative Medicine for a full lipid panel analysis.

| SMILES | BTLA expression on CD4+ T cells [1] | PD1 expression on CD4+ T cells [1] | PD-L1 expression on CD4+ T cells [1] | BTLA expression on CD19+ B cells [1] | BTLA expression on CD8+ T cells [1] | PD1 expression on CD8+ T cells [1] | PD-L1 expression on CD8+ T cells [1] | CD3+CD8+ T cells [1] | CD3+CD4+ T cells [1] | PD1 expression on CD19+ B cells [1] | PD-L1 expression on CD19+ B cells [1] | CD19+B220+ B cells [1] | VLA-4 (CD29+CD49d+) expression on T cells [1] | VLA-4 (CD29+CD49d+) expression on B cells [1] | further results |
| --- | --- | --- | --- | --- | --- | --- | --- | --- | --- | --- | --- | --- | --- | --- | --- |
| CC[C@H]1[C@@H](O)[C@@H]2[C@H](CC[C@]3(C)[C@@H]([C@H](C)CCC(=O)O)CC[C@@H]23)[C@@]2(C)CC[C@@H](O)C[C@@H]12 [6-ECDCA, 6α-Ethyl-chenodeoxycholic acid] | 2.38% | 2.74% | 6.59% | 6.23% | 1.21% | 1.82% | 9.5% | 12.22% | 7.33% | 12.3% | 11.34% | 30.69% | 36.67% | 51.98% | – |
| C[C@H](CCC(=O)O)[C@H]1CC[C@H]2[C@@H]3[C@H](O)C[C@@H]4C[C@H](O)CC[C@]4(C)[C@H]3CC[C@]12C [CDCA, Chenodeoxycholic acid] | 2.77% | 2.64% | 8.43% | 6.76% | 1.92% | 1.63% | 12.3% | 12.92% | 7.89% | 9.58% | 3.79% | 36.07% | 33.78% | 49.16% | Clinical EAE scores of naive recipient mice [2]: significantly less severe disease; T cell recall responses to MOG35-55 ([3]; daily oral treatment of established EAE (FIG. 3C)): significantly suppressed; Recall responses of MOG35-55-specific lymphocytes (proliferation) ([3]; eleven days of oral dosing, combined splenocytes and lymphocytes, vs vehicle (FIG. 4B)): greatly reduced; IFN-gamma production [4]: decreased; IL-6 production [4]: decreased; IL-17 production [4]: not significantly altered; TNF production [4]: decreased; Clinical EAE score (average EAE disease grade) [5]: clinical disease was ameliorated; Serum HDL levels [6]: decreased; Serum cholesterol levels [6]: decreased; Serum low-density lipoprotein (LDL) levels [6]: not significantly altered; Serum triglycerides [6]: not significantly altered |

From patent publication US20170196893A1, “TREATMENT OF INFLAMMATORY DEMYELINATING DISEASE WITH AGONISTS OF FARNESOID X RECEPTOR” (The Board of Trustees of the Leland Stanford Junior …, priority 2016, published 2017)
